Results published in patent US20220233556A1, “COMPOSITIONS AND METHODS FOR TREATING OPHTHALMIC CONDITIONS” (Medicon Pharmaceuticals, Inc., priority 2017, published 2022).
Where two headings read alike, the source gives them in different places.

Tests used:
[1] = tested on: oxygen-induced retinopathy; assay: Mouse model of oxygen-induced retinopathy; assay type: in vivo, C57BL/6 mice; settings: intravitreal 1 μl PS solution on P12, retina on P17, vs vehicle
Source text: Several animal models have been explored to understand retinal vascular development. The mouse model of oxygen-induced retinopathy is the most widely used, and has played a pivotal role in our understanding of retinal angiogenesis and in the development of therapeutics such as anti-vascular endothelial growth factor injections for wet age-related macular degeneration.
C57BL/6 mice were reared in 75±2% oxygen air starting on postnatal day 7 (P7) and moved into room air on P12, when they were injected intravitreally with 1 μl of […] PS solution or vehicle. The PS solution consisted of 4.0% PS, 20% Poloxamer 407 and 12% VETPGS (d-α-tocopheryl polyethylene glycol 1000 succinate). On P17, the pups were euthanized, both eyes were enucleated and fixed with 4% paraformaldehyde (PFA). Following several intermediate steps, the retina was existed and fixed further with 4% PFA overnight. After appropriate washings, the retina was incubated with 10 μg/ml of FITC-conjugated anti-lectin antibody overnight and retina flat-mounts were prepared on glass slides and evaluated by fluorescence microscopy. The areas of the avascular, neovascular and whole retina were determined using ImageJ software.

uveitis = assay: LPS-induced uveitis in rats; assay type: in vivo; settings: PS 3% once intravitreally, 48 h
Description: Uveitis was produced in rats by injecting LPS 75 ng into the footpad of rats. The rats were injected once intravitreally with 2 μPS 3% or vehicle. A control group included naïve rats (not LPS, no treatment). Forty-eight hours later we examined their eyes, sampled the aqueous humor and after euthanizing them we excised, fixed and stained with H&E ocular tissues following standard protocols. […] These findings document a very strong and unexpected therapeutic effect of PS against uveitis.

[2] = PS levels in ocular tissues after topical gellan gum-based in-situ gel; assay type: in vivo, New Zealand white rabbits; settings: New Zealand white, rabbit, gellan gum 0.5% in-situ gel, 2.4~3% PS, eye drops
Description: Composition: 2.4˜3% PS; 0.5% Gellan gum; 5% Vitamin E TPGS; 10% (2-hydroxypropyl)-β-cyclodextrin. Preparation Method: A Gellan gum solution was prepared by adding a certain amount of gellan gum to deionized water and heating the mixture to 90° C. with fast stirring (500 rpm). Once completely dissolved, the solution was filtered through a 0.22 μm filter. Then, PS and additional excipients were added to the system to achieve the above concentrations and stirred at 50° C. at 500 rpm for 30 minutes to allow complete dissolution.
Results: The above PS formulation was administered topically as eye drops to the eyes of New Zealand white rabbits. The levels of PS in ocular tissues at 2 h later were determined by HPLC.

[3] = PS biodistribution after topical alternative gellan gum-based in-situ gel; assay type: in vivo, New Zealand white rabbits; settings: New Zealand white, rabbit, alternative gellan gum 0.4% gel
Description: Composition: 2.4-3% PS; 0.4% Gellan gum; 10% Vitamin E TPGS; 5% (2-hydroxypropyl)-β-cyclodextrin.
Results: PS in this formulation was administered topically to the eyes of New Zealand white rabbits and its biodistribution was determined as above.

[4] = Corneal levels of a PS 0.2% solution formulation after single topical application; assay type: in vivo; settings: cornea, topical or ocular, 0.2 % PS solution (single application, volume not stated), mean ± SEM
Description: Another embodiment of this type of formulation is: 0.1% PS, 10% HP-β-CD, 4% Tween 80, 2.5% Vitamin E TPGS, 1.4% polyvinyl alcohol (PVA) (13,000-26,000 molecular weight), 0.001% polyquad. Another embodiment of this type of formulation is: 0.2% PS; 10% HP-β-CD; 4% Tween 80; 2.5% Vitamin E TPGS; 1.4% polyvinyl alcohol (PVA) (13,000-26,000 molecular weight); and 0.001% polyquad. Preparation method: PVA was dissolved into water by stirring at 95° C. for 6 h. All ingredients including the PVA solution and PS were added into a glass vial, stirred at 50° C. (in a water bath) for 4 h, and then stirred at RT overnight. The pH was adjusted to 7.4±0.2 with NaOH and the osmolarity to 280-320 mOsm with NaCl 18%. For a sterile final product, this solution was filtered through a […] film.
The corneal levels of a PS 0.2% formulation were determined after its single topical application to the surface of the eye.

[5] = aqueous humor, read-out: PS in Aqueous humor
[6] = conjunctiva, read-out: PS in Conjunctiva

With `CCOP(=O)(OCC)OCCCCOC(=O)CC1=C(C)/C(=C/c2ccc([S+](C)[O-])cc2)c2ccc(F)cc21` (stereo not drawn) [PS, phosphosulindac] the “inhibition of peripheral neovascularization” value [1] was 36%, the “reduction of central avascular area” value [1] was 51% and the clinical score (uveitis; mean±SEM, vehicle 3.3±0.2) was 1.8±0.2. The “inflammatory cells in the tissues of the anterior chamber” value (uveitis; vehicle 203±39) was 12±2.3, the number of cells (uveitis; aqueous humor, vehicle 543±132) was 164±31 and the concentration at 2 h [2, 5] was 1200 nM. The concentration at 2 h [2, 6] was 24100 nM, the concentration at 2 h ([2]; cornea, read-out: PS in Cornea) was 72000 nM and the concentration at 0.5 h [3, 5] was 600 nM. The concentration at 1 h [3, 5] was 400 nM, the concentration at 0.5 h [3, 6] was 37700 nM and the concentration at 1 h [3, 6] was 20800 nM. For the same compound, the concentration at 3 h [3, 6] was 700 nM, the concentration at 5 h [3, 6] was 1100 nM and the concentration at 8 h [3, 6] was 700 nM. For the same compound, the concentration at 0.5 h ([3]; cornea, read-out: PS in Cornea) was 24300 nM, the concentration at 1 h ([3]; cornea, read-out: PS in Cornea) was 50800 nM and the concentration at 3 h ([3]; cornea, read-out: PS in Cornea) was 1500 nM. The concentration at 5 h ([3]; cornea, read-out: PS in Cornea) was 1100 nM, the concentration at 8 h ([3]; cornea, read-out: PS in Cornea) was 1600 nM and the Cmax [4] was 63400 ± 10000 nM. For the same compound, the AUC(0-t) ([4]; read-out: AUC0-t, Cornea) was 62.6 ± 10.2 µM·h, the MRT inf ([4]; read-out: MRT0-inf—obs, Cornea) was 60 ± 6 min and the half-life ([4]; read-out: t1/2, Cornea (converted)) was 42 ± 12 min.
